Reference: the supplement of paper PMC8671470

Assays:
Details in all cases: 72 h
BV-173 [1] = test: cell viability (% survival relative to DMSO control, bortezomib = 0%); higher = less cytotoxic
How it was run: (§1)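 Fifteen myeloid leukaemia cell lines (10 AML, 5 CML) were seeded at a density titrated to the linear growth range. They went into 384-well plates with compounds pre-printed at 1, 10, 100, 1000 or 10000 nM in duplicate. After 72 h at 37 °C with 5% CO2, viability was read by CellTiter-Glo luminescence. Values are percent survival, with vehicle set to 100% and a 10 µM positive control to 0%, averaged over the duplicates.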

KG-1 [2] = test: as above
How it was run: as §1

K-562 [3] = test: as above
How it was run: as §1

MOLM-13 [4] = test: as above
How it was run: as §1

ML-2 [5] = test: as above
How it was run: as §1

Mono-Mac-6 [6] = test: as above
How it was run: as §1

KU-812 [7] = test: as above
How it was run: as §1

KCL-22 [8] = test: as above
How it was run: as §1

MV4-11 [9] = test: as above
How it was run: as §1

SHI-1 [10] = test: as above
How it was run: as §1

THP-1 [11] = test: as above
How it was run: as §1

NOMO-1 [12] = test: as above
How it was run: as §1

LAMA-84 [13] = test: as above
How it was run: as §1

HL-60 [14] = test: as above
How it was run: as §1

HEL [15] = test: as above
How it was run: as §1

BV-173 [16] = system: BV-173
How it was run: (§2)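 For the IC50, dose–response curves were fitted with a log-logistic model. The data came from fifteen myeloid leukaemia cell lines grown in RPMI 1640 at densities in the linear growth range and incubated in 384-well plates for 72 h at 37 °C under 5% CO2. Doses were five tenfold steps from 1 to 10,000 nM in duplicate, and luminescent ATP viability was normalised to vehicle and to a positive control at 10 µM before four-parameter fitting.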

KG-1 [17] = system: KG-1
How it was run: as §2

K-562 [18] = system: K-562
How it was run: as §2

MOLM-13 [19] = system: MOLM-13
How it was run: as §2

ML-2 [20] = system: ML-2
How it was run: as §2

Mono-Mac-6 [21] = system: Mono-Mac-6
How it was run: as §2

KU-812 [22] = system: KU-812
How it was run: as §2

KCL-22 [23] = system: KCL-22
How it was run: as §2

MV4-11 [24] = system: MV4-11
How it was run: as §2

SHI-1 [25] = system: SHI-1
How it was run: as §2

THP-1 [26] = system: THP-1
How it was run: as §2

NOMO-1 [27] = system: NOMO-1
How it was run: as §2

LAMA-84 [28] = system: LAMA-84
How it was run: as §2

HL-60 [29] = system: HL-60
How it was run: as §2

HEL [30] = system: HEL
How it was run: as §2

O=c1c(-c2ccc(O)cc2)coc2cc(O[C@@H]3O[C@H](CO)[C@@H](O)[C@H](O)[C@H]3O)ccc12 [Daidzin]
cell viability [%]
Details | 1 nM | 10 nM | 100 nM | 1000 nM | 10000 nM
BV-173 [1] | 94 | 87.4 | 92.4 | 125 | 91.8
HEL [15] | 93 | 93.7 | 107 | 105 | 102
HL-60 [14] | 107 | 99.6 | 100 | 93.9 | 92.7
K-562 [3] | 92.1 | 98.9 | 98.5 | 111 | 106
KCL-22 [8] | 88.6 | 98.9 | 103 | 109 | 111
KG-1 [2] | 99 | 96.6 | 100 | 97.6 | 98.6
KU-812 [7] | 90.9 | 93.6 | 100 | 99.5 | 87.5
LAMA-84 [13] | 102 | 91 | 96.8 | 99.2 | 97.9
ML-2 [5] | 103 | 90.1 | 95.8 | 112 | 97.8
MOLM-13 [4] | 83.9 | 107 | 105 | 99.8 | 99.3
MV4-11 [9] | 91.6 | 84 | 106 | 133 | 98.8
Mono-Mac-6 [6] | 90.8 | 88.2 | 94.6 | 107 | 83.2
NOMO-1 [12] | 93.4 | 99.7 | 99.4 | 101 | 103
SHI-1 [10] | 93.7 | 106 | 108 | 107 | 103
THP-1 [11] | 97.8 | 98.5 | 97.5 | 106 | 95.4

Details | IC50 (cell viability) [µM]
BV-173 [16] | > 10
HEL [30] | > 10
HL-60 [29] | > 10
K-562 [18] | > 10
KCL-22 [23] | > 10
KG-1 [17] | > 10
KU-812 [22] | > 10
LAMA-84 [28] | > 10
ML-2 [20] | > 10
MOLM-13 [19] | > 10
MV4-11 [24] | > 10
Mono-Mac-6 [21] | > 10
NOMO-1 [27] | > 10
SHI-1 [25] | > 10
THP-1 [26] | > 10

CCCCCN(C)CCC(O)(P(=O)(O)O)P(=O)(O)O [Ibandronate]
cell viability [%]
Details | 1 nM | 10 nM | 100 nM | 1000 nM | 10000 nM
BV-173 [1] | 94.6 | 96 | 94.4 | 120 | 122
HEL [15] | 107 | 105 | 109 | 95.5 | 114
HL-60 [14] | 92.4 | 111 | 103 | 90.5 | 142
K-562 [3] | 113 | 92 | 81.9 | 102 | 101
KCL-22 [8] | 107 | 105 | 95.1 | 99.8 | 112
KG-1 [2] | 103 | 108 | 96.5 | 115 | 111
KU-812 [7] | 88.2 | 90.9 | 89.9 | 110 | 105
LAMA-84 [13] | 104 | 98.3 | 100 | 106 | 103
ML-2 [5] | 94 | 110 | 97.2 | 114 | 112
MOLM-13 [4] | 84.4 | 110 | 111 | 100 | 117
MV4-11 [9] | 95 | 90.5 | 104 | 86.6 | 116
Mono-Mac-6 [6] | 93.1 | 98.3 | 90 | 103 | 115
NOMO-1 [12] | 99.6 | 99.3 | 94.4 | 109 | 112
SHI-1 [10] | 108 | 108 | 103 | 98 | 107
THP-1 [11] | 94.7 | 102 | 103 | 113 | 115

Details | IC50 (cell viability) [µM]
BV-173 [16] | > 10
HEL [30] | > 10
HL-60 [29] | > 10
K-562 [18] | > 10
KCL-22 [23] | > 10
KG-1 [17] | > 10
KU-812 [22] | > 10
LAMA-84 [28] | > 10
ML-2 [20] | > 10
MOLM-13 [19] | > 10
MV4-11 [24] | > 10
Mono-Mac-6 [21] | > 10
NOMO-1 [27] | > 10
SHI-1 [25] | > 10
THP-1 [26] | > 10
